Patent US20130158075A1, “HETEROCYCLIC COMPOUNDS AS DGAT1 INHIBITORS” (PIRAMAL ENTERPRISES LIMITED, priority 2010, published 2013)

Biological target: T1, hDGAT1 (Homo sapiens, UniProt O75907)
T1 construct: made in house; host or cells: Sf9 insect cells (baculovirus); microsomal fraction
T1 sequence (O75907 1-488): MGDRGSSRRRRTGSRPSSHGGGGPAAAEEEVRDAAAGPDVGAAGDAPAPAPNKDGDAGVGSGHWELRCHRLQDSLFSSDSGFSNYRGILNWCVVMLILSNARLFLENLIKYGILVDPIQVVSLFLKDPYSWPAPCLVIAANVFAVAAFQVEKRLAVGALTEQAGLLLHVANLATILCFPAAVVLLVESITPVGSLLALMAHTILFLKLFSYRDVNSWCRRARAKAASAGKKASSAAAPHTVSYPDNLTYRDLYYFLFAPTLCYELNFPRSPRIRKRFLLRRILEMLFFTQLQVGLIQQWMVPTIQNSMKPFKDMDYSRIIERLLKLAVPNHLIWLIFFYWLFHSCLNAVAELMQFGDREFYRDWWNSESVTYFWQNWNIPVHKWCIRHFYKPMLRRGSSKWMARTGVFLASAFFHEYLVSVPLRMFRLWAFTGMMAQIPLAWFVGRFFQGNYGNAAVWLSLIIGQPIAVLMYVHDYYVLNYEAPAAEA
Experiment: In-vitro DGAT1 assay with hDGAT1 microsomes from Sf9 cells (14C oleoyl CoA, scintillation counting)
Type: biochemical
Conditions: for inhibition at 1 µM: read-out: Percentage inhibition of hDGAT1; for Percentage inhibition of hDGAT1: at 1 μM
Outline: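 Microsomes from Sf9 cells infected with hDGAT1 baculovirus (MOI 5, harvested ~66-72 h) were incubated with [14C]oleoyl-CoA and 1,2-dioleoyl-sn-glycerol at 37 °C for 10 min, in duplicate. After alkaline ethanol stop, triglycerides were heptane-extracted and counted by liquid scintillation; percent inhibition was plotted against compound concentration (nM).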

Compound | inhibition at 1 µM [%] | Percentage inhibition of hDGAT1
O=C(Nc1ccc(-c2cnc(C3CCN(S(=O)(=O)C(F)(F)F)CC3)s2)cc1)Nc1ccccc1F [Example 483, 1-(2-Fluorophenyl)-3-(4-(2-(1-((trifluoromethyl)sulfonyl)piperidin-4-yl)thiazol-5-yl)phenyl)urea] | 20 to 50 | –
O=C(Nc1ccc(-c2cnc(C3CCN(S(=O)(=O)C(F)(F)F)CC3)s2)cc1)Nc1ccccc1Cl [Example 484, 1-(2-Chlorophenyl)-3-(4-(2-(1-((trifluoromethyl)sulfonyl)piperidin-4-yl)thiazol-5-yl)phenyl)urea] | 20 to 50 | –
O=C(Nc1ccc(-c2cnc(C3CCN(S(=O)(=O)C(F)(F)F)CC3)s2)cc1)Nc1ccc(F)cc1F [Example 485, 1-(2,4-Difluorophenyl)-3-(4-(2-(1-((trifluoromethyl)sulfonyl)piperidin-4-yl)thiazol-5-yl)phenyl)urea] | 20 to 50 | –
O=C(Nc1ccc(-c2cnc(C3CCN(S(=O)(=O)C(F)(F)F)CC3)s2)cc1)Nc1c(F)cc(F)cc1F [Example 486, 1-(4-(2-(1-((Trifluoromethyl)sulfonyl)piperidin-4-yl)thiazol-5-yl)phenyl)-3-(2,4,6-trifluorophenyl)urea] | 20 to 50 | –
O=C(Nc1ccc(-c2cnc(C3CCN(S(=O)(=O)C(F)(F)F)CC3)s2)cc1)Nc1cc(F)c(F)cc1F [Example 487, 1-(4-(2-(1-((Trifluoromethyl)sulfonyl)piperidin-4-yl)thiazol-5-yl)phenyl)-3-(2,4,5-trifluorophenyl)urea] | 20 to 50 | –
CS(=O)(=O)N1CCC(c2ncc(-c3ccc(NC(=O)Nc4ccccc4Cl)cc3)s2)CC1 [Example 490, 1-(2-Chlorophenyl)-3-(4-(2-(1-(methylsulfonyl)piperidin-4-yl)thiazol-5-yl)phenyl)urea] | 20 to 50 | –
CS(=O)(=O)N1CCC(c2ncc(-c3ccc(NC(=O)Nc4ccccc4F)cc3)s2)CC1 [Example 491, 1-(2-Fluorophenyl)-3-(4-(2-(1-(methylsulfonyl)piperidin-4-yl)thiazol-5-yl)phenyl)urea] | 20 to 50 | –
CS(=O)(=O)N1CCC(c2ncc(-c3ccc(NC(=O)Nc4c(F)cc(F)cc4F)cc3)s2)CC1 [Example 493, 1-(4-(2-(1-(Methylsulfonyl)piperidin-4-yl)thiazol-5-yl)phenyl)-3-(2,4,6-trifluorophenyl)urea] | 20 to 50 | –
CS(=O)(=O)N1CCC(c2ncc(-c3ccc(NC(=O)Nc4cc(F)c(F)cc4F)cc3)s2)CC1 [Example 494, 1-(4-(2-(1-(Methylsulfonyl)piperidin-4-yl)thiazol-5-yl)phenyl)-3-(2,4,5-trifluorophenyl)urea] | > 50 | –
O=C(Nc1ccc(-c2cnc(C34CC5CC(CC(C(=O)O)(C5)C3)C4)s2)cc1)Nc1ccccc1F [Example 502, 3-(5-(4-(3-(2-Fluorophenyl)ureido)phenyl)thiazol-2-yl)adamantane-1-carboxylic acid] | > 50 | –
O=C(Nc1ccc(-c2cnc(C34CC5CC(CC(C(=O)O)(C5)C3)C4)s2)cc1)Nc1c(F)cccc1F [Example 506, 3-(5-(4-(3-(2,6-Difluorophenyl)ureido)phenyl)thiazol-2-yl)adamantane-1-carboxylic acid] | > 50 | –
O=C(Nc1ccc(-c2cnc(C34CC5CC(CC(C(=O)O)(C5)C3)C4)s2)cc1)Nc1cc(F)c(F)cc1F [Example 508, 3-(5-(4-(3-(2,4,5-Trifluorophenyl)ureido)phenyl)thiazol-2-yl)adamantane-1-carboxylic acid] | > 50 | –
O=C(Nc1ccc(-c2cnc(C34CC5CC(CC(C(=O)O)(C5)C3)C4)s2)cc1)Nc1ccc(F)c(F)c1F [Example 510, 3-(5-(4-(3-(2,3,4-Trifluorophenyl)ureido)phenyl)thiazol-2-yl)adamantane-1-carboxylic acid] | > 50 | –
O=C(Nc1ccc(-c2cnc(C34CC5CC(CC(C(=O)O)(C5)C3)C4)s2)cc1)Nc1cc(F)cc(F)c1 [Example 512, 3-(5-(4-(3-(3,5-Difluorophenyl)ureido)phenyl)thiazol-2-yl)adamantane-1-carboxylic acid] | > 50 | –

Second part, the compound after the results:

inhibition at 1 µM [%] | Percentage inhibition of hDGAT1 | Compound
> 50 | – | O=C(Nc1ccc(-c2cnc(C34CC5CC(CC(C(=O)O)(C5)C3)C4)s2)cc1)Nc1cccc(C(F)(F)F)c1 [Example 514, 3-(5-(4-(3-(3-(Trifluoromethyl)phenyl)ureido)phenyl)thiazol-2-yl)adamantane-1-carboxylic acid]
– | ++ (>50 % Inhibition) | O=C(Nc1ccc(-c2cnc(CCNS(=O)(=O)C(F)(F)F)s2)cc1)Nc1ccc(C(F)(F)F)cc1 [Example 526]
> 50 | – | O=C(Nc1ccccc1)Nc1ccc(-c2cnc(CCNS(=O)(=O)C(F)(F)F)s2)cc1 [Example 527, 1,1,1-Trifluoro-N-(2-(5-(4-(3-phenylureido)phenyl)thiazol-2-yl)ethyl)methane sulfonamide]
– | ++ (>50 % Inhibition) | O=C(Nc1ccc(-c2cnc(CCNS(=O)(=O)C(F)(F)F)s2)cc1)NC1CCCCC1 [Example 528, N-(2-(5-(4-(3-Cyclohexylureido)phenyl)thiazol-2-yl)ethyl)-1,1,1-trifluoro methanesulfonamide]
20 to 50 | – | O=C(Nc1ccc(-c2cnc(CCNS(=O)(=O)C(F)(F)F)s2)cc1)c1ccccc1Cl [Example 529, 2-Chloro-N-(4-(2-(2-(trifluoromethylsulfonamido)ethyl)thiazol-5-yl)phenyl)benzamide]
> 50 | – | O=C(Nc1ccc(-c2cnc(CCNS(=O)(=O)C(F)(F)F)s2)cc1)c1nc(-c2ccccc2)oc1C(F)(F)F [Example 533, 2-Phenyl-5-(trifluoromethyl)-N-(4-(2-(2-(trifluoromethylsulfonamido)ethyl)thiazol-5-yl)phenyl)oxazole-4-carboxamide]
> 50 | – | N#CN=C(Nc1ccc(-c2cnc(CCNS(=O)(=O)C(F)(F)F)s2)cc1)Nc1ccccc1F [Example 537, N-(2-(5-(4-(2-Cyano-3-(2-fluorophenyl)guanidino)phenyl)thiazol-2-yl)ethyl)-1,1,1-trifluoromethanesulfonamide]
– | ++ (>50 % Inhibition) | O=C(Nc1ccc(-c2cnc(CNS(=O)(=O)C(F)(F)F)s2)cc1)Nc1ccccc1Cl [Example 543, N-((5-(4-(3-(2-Chlorophenyl)ureido)phenyl)thiazol-2-yl)methyl)-1,1,1-trifluoro methanesulfonamide]
> 50 | – | O=C(Nc1ccc(-c2cnc(CNS(=O)(=O)C(F)(F)F)s2)cc1)Nc1ccccc1F [Example 544, 1,1,1-Trifluoro-N-((5-(4-(3-(2-fluorophenyl)ureido)phenyl)thiazol-2-yl)methyl)methanesulfonamide]
> 50 | – | O=C(Nc1ccc(-c2cnc(CNS(=O)(=O)C(F)(F)F)s2)cc1)Nc1cc(F)cc(F)c1 [Example 545, N-((5-(4-(3-(3,5-Difluorophenyl)ureido)phenyl)thiazol-2-yl)methyl)-1,1,1-trifluoromethanesulfonamide]
> 50 | – | O=C(Nc1ccc(-c2cnc(CNS(=O)(=O)C(F)(F)F)s2)cc1)Nc1cc(F)c(F)cc1F [Example 546, 1,1,1-Trifluoro-N-((5-(4-(3-(2,4,5-trifluorophenyl)ureido)phenyl)thiazol-2-yl)methyl)methanesulfonamide]
